Laboratory results taken from ChEMBL document CHEMBL1201862, “PubChem BioAssay data set” (2004).
Activity calls are given as the source filed them.

Assays:
[1] = molecular target: Luciferin 4-monooxygenase (Photinus pyralis, UniProt P08659); experiment: Counter Screen for Luciferase-based Assay Positives. [Related pubchem assays: 620, 618, 411 ]
[2] = system: HT-1080; experiment: cytotoxicity in HT1080 fibrosarcoma cells, cell-based, fluorescence readout (AID 620); type: functional; settings: Homo sapiens
[3] = cells; type: functional, cell-based
[4] = molecular target: T1, Trace amine-associated receptor 1 (Homo sapiens, UniProt Q96RJ0); experiment: Fluorescence-based cell-based high throughput dose response assay to identify agonists of the human trace amine associated receptor 1 (TAAR1).; type: functional
T1 sequence (Q96RJ0 whole entry): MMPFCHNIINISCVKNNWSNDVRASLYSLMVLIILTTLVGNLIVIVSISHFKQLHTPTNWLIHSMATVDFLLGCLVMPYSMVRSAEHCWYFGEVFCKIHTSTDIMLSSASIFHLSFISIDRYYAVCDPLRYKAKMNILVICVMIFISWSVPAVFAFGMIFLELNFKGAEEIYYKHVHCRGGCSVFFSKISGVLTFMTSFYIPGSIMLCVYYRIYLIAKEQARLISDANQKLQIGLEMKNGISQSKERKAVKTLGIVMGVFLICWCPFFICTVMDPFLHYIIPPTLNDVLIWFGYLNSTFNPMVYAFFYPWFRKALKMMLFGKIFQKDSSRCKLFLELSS

[5] = molecular target: T1, Trace amine-associated receptor 1; experiment: Counterscreen for agonists of the human trace amine associated receptor 1 (hTAAR1): Fluorescence-based cell-based high throughput dose response assay to identify hTAAR1 agonist that also desensitize TAAR1 receptor response.; type: functional
[6] = cells; type: functional, cell-based; remark: listed apart in the source
[7] = molecular target: T2, X-box-binding protein 1 (Homo sapiens, UniProt P17861); type: functional, Cricetulus griseus;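 note: confirmatory dose-response counter-screen serving a CHOP assay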
T2 sequence (P17861 whole entry): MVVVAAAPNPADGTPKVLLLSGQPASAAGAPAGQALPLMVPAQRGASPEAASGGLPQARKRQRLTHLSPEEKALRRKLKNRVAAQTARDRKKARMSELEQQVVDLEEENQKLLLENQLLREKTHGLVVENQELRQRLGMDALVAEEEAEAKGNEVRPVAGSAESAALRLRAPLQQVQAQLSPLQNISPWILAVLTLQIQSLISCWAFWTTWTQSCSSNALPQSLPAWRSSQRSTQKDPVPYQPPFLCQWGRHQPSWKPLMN

[8] = molecular target: Peroxisome proliferator-activated receptor gamma/Nuclear receptor coactivator 2 (Homo sapiens, UniProt P37231); type: functional;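 note: agonist potency for raising coactivator recruitment to the receptor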
[9] = molecular target: Peroxisome proliferator-activated receptor gamma/Nuclear receptor coactivator 1 (Homo sapiens, UniProt P37231); type: functional;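 note: agonist potency as compounds enhance coactivator SRC-1 recruitment to PPARgamma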
[10] = molecular target: Peroxisome proliferator-activated receptor gamma/Nuclear receptor coactivator 3 (Homo sapiens, UniProt P37231); type: functional;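 note: agonist potency for raising coactivator recruitment to the receptor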
[11] = molecular target: Neurotensin receptor type 1 (Homo sapiens, UniProt P30989); type: functional;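 note: Image-based confirmatory dose-response assay measuring agonist activity at NTR1; NTR1-expressing U2OS osteosarcoma cells imaged for beta-arrestin GFP spot formation; agonist potency where compounds increase beta-arrestin recruitment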
[12] = cytotoxicity in HPDE-C7 cells, cell-based, fluorescence, HTS (AID 430); type: functional; settings: Homo sapiens
[13] = cytotoxicity in KRAS-transformed pancreatic duct cells, primary screen, cell-based, fluorescence, HTS (AID 431); type: functional; settings: Homo sapiens;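 note: cell line used: HPDE-C7K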
[14] = microbe, parasite or virus in culture; type: functional; settings: Mycobacterium tuberculosis
[15] = THP-1 cell cytotoxicity, dose response, cytotoxicity control for non-replicating M. tuberculosis project (AID 489025); type: functional
[16] = Vero E6 cell cytotoxicity, dose response, cytotoxicity control for non-replicating M. tuberculosis project, secondary assay (AID 492998); type: functional, VeroE6; settings: Vero C1008
[17] = cells; type: functional
[18] = molecular target: DNA dC->dU-editing enzyme APOBEC-3G (Homo sapiens, UniProt Q9HC16); experiment: Dose Response confirmation of small molecule APOBEC3G DNA Deaminase Inhibitors via a fluorescence-based single-stranded DNA deaminase assay. [Related pubchem assays (depositor defined):AID493012, AID493028]; type: functional
[19] = molecular target: T3, DNA repair protein RAD52 homolog (Homo sapiens, UniProt P43351); type: functional, biochemical
T3 sequence (P43351 whole entry): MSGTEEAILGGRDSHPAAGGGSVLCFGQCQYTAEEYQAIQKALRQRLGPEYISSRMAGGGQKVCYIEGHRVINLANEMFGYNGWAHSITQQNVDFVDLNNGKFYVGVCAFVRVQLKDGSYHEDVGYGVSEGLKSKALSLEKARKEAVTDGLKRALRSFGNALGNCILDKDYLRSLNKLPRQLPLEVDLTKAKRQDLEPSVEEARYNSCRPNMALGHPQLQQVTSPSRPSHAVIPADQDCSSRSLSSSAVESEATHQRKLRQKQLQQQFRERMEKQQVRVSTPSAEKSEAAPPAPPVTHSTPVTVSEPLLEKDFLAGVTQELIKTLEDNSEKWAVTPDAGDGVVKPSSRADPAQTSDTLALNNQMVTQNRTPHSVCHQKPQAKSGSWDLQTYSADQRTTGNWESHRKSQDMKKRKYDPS

[20] = molecular target: T4, CAAX prenyl protease 2 (Saccharomyces cerevisiae S288c, UniProt Q03530); type: biochemical
T4 sequence (Q03530 whole entry): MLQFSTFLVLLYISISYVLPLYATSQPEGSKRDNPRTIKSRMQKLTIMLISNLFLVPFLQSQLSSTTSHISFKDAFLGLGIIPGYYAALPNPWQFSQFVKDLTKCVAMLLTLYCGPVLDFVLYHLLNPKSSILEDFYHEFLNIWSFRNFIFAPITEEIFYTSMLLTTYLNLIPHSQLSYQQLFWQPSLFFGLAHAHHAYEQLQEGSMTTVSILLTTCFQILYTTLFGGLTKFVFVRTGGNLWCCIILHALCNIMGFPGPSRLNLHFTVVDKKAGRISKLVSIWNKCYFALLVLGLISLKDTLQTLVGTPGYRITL

[21] = molecular target: T5, Microphthalmia-associated transcription factor (Homo sapiens, UniProt O75030); experiment: TRPM1 promoter luciferase signal decrease, dose response, MITF inhibitor project, cell-based, SK-MEL-5, cherry-picked, set 3 (AID 493073); type: functional
T5 sequence (O75030 whole entry): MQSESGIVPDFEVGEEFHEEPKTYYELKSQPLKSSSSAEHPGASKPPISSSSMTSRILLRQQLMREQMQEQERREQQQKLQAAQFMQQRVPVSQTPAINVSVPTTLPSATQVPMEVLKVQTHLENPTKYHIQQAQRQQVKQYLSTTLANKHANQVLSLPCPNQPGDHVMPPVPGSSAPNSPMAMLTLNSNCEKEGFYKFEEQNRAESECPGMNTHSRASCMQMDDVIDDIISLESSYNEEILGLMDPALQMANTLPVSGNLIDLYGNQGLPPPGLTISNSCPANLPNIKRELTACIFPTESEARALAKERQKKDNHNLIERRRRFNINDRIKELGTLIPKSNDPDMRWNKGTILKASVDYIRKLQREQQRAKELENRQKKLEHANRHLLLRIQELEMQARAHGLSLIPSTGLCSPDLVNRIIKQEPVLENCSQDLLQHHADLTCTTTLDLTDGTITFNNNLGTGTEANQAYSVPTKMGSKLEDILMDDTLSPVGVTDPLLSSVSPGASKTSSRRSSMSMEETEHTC

[22] = inhibitors of firefly luciferase expression or activity, dose response, H4 neuroglioma cells, luminescence (AID 1990); type: functional, cell-based
[23] = system: BJ; experiment: cytotoxicity toward BJ-TERT fibroblasts, dose response, cell-based, RAS-independent, luminescence (AID 1933); type: functional; settings: Homo sapiens
[24] = molecular target: Glyceraldehyde-3-phosphate dehydrogenase (Homo sapiens, UniProt P04406)
[25] = Luminescence Cell-Based Dose Response HTS to Identify Inhibitors of 5'UTR Stem-Loop Driven Prion Protein mRNA Translation in H4 Neuroglioblastoma Cells. [Related pubchem assays: 1827 (Project Summary), 1813 (Primary HTS)]; type: functional
[26] = inhibitors of SNCA 5'UTR-driven reporter translation, confirmation, H4 neuroglioma cells, luminescence (AID 1988); type: functional, cell-based
[27] = system: BJ; experiment: cells; type: functional, cell-based; settings: Homo sapiens
[28] = system: BJ; experiment: cytotoxicity toward BJ-TERT-LT-ST fibroblasts, dose response, cell-based, RAS-independent, luminescence (AID 1935); type: functional; settings: Homo sapiens;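 note: BJ fibroblasts immortalized with TERT plus LT and ST oncogenes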
[29] = cytotoxicity toward DRD oncogenic fibroblasts, dose response, cell-based, non-viral oncogenic, luminescence (AID 1934); type: functional; settings: Homo sapiens
[30] = molecular target: Heat shock protein HSP 90-alpha (Homo sapiens, UniProt P07900); type: functional, organism-based
[31] = system: HEK293; experiment: NOD1 signaling inhibitors, primary screen, cell-based, luminescence, uHTS (AID 1578); type: functional; settings: Homo sapiens
[32] = system: HEK293; experiment: cells; type: functional, cell-based; settings: Homo sapiens
[33] = system: HEK293; experiment: cells; type: functional, cell-based; settings: Homo sapiens; remark: listed apart in the source
[34] = system: HEK293; experiment: NOD2 signaling inhibitors in MDP-stimulated cells, cell-based, uHTS, luminescence (AID 2001); type: functional; settings: Homo sapiens
[35] = molecular target: Tumor necrosis factor (Homo sapiens, UniProt P01375); experiment: TNFa-triggered NF-kB activation inhibitors, SAR follow-up, cell-based, revised (AID 2337); type: functional
[36] = molecular target: T6, Nucleotide-binding oligomerization domain-containing protein 1 (Homo sapiens, UniProt Q9Y239); experiment: NOD1 signaling inhibitors, SAR follow-up, revised (AID 2333); type: functional
T6 sequence (Q9Y239 whole entry): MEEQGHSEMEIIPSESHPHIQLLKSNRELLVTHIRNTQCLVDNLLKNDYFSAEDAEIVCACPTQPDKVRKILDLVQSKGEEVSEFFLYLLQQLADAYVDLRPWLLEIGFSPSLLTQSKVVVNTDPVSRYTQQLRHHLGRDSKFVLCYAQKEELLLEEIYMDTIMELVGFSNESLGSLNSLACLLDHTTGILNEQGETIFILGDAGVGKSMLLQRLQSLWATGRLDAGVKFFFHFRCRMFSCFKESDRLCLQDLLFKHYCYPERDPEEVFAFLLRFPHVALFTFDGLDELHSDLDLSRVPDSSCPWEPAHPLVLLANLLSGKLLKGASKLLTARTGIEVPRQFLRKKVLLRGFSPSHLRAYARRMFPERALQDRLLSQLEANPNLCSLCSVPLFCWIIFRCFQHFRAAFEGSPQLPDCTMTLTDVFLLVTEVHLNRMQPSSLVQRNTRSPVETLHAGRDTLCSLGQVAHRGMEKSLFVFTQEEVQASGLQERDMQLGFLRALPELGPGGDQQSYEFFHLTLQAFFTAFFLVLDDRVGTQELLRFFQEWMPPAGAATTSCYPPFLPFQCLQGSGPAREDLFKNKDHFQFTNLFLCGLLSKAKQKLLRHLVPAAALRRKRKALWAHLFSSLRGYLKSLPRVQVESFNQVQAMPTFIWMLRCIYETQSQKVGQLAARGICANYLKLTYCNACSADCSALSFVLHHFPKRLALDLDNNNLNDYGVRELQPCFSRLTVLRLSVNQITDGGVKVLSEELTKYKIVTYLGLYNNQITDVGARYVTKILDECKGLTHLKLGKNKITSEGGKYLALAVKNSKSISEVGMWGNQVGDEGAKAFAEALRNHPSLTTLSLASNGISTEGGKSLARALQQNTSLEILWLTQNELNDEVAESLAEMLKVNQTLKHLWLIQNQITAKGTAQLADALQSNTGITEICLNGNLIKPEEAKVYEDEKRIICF

[37] = system: HEK293; experiment: cells; settings: Homo sapiens

Luciferin 4-monooxygenase, sequence (P08659 whole entry): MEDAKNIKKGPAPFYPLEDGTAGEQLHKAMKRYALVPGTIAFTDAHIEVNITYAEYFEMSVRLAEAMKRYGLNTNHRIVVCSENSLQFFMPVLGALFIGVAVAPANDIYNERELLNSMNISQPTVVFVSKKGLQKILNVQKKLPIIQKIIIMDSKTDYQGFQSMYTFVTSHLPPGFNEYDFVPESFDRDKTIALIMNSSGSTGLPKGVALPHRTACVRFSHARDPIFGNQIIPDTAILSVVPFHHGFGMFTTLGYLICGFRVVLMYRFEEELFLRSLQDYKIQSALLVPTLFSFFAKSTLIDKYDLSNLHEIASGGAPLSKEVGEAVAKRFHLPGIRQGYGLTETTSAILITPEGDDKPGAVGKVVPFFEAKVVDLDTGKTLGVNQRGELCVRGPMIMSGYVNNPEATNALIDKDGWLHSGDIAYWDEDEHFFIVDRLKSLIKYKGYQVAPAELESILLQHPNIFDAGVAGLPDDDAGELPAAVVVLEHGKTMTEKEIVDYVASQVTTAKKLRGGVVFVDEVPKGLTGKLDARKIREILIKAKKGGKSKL
Peroxisome proliferator-activated receptor gamma/Nuclear receptor coactivator 3, sequence (P37231 whole entry): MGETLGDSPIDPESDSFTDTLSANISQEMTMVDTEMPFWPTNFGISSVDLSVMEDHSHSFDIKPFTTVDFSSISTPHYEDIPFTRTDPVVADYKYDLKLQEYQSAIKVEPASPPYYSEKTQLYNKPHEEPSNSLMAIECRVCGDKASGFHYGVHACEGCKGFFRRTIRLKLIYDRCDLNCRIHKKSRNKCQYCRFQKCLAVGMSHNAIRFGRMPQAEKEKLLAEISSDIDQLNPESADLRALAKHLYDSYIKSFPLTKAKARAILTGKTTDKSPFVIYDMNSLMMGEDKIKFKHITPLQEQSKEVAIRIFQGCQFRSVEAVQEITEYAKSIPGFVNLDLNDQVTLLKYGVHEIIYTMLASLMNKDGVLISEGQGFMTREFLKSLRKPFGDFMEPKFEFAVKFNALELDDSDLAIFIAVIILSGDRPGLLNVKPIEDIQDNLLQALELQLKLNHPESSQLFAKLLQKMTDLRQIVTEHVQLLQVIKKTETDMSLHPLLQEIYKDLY
Peroxisome proliferator-activated receptor gamma/Nuclear receptor coactivator 3, sequence (Q9Y6Q9 whole entry, further chain): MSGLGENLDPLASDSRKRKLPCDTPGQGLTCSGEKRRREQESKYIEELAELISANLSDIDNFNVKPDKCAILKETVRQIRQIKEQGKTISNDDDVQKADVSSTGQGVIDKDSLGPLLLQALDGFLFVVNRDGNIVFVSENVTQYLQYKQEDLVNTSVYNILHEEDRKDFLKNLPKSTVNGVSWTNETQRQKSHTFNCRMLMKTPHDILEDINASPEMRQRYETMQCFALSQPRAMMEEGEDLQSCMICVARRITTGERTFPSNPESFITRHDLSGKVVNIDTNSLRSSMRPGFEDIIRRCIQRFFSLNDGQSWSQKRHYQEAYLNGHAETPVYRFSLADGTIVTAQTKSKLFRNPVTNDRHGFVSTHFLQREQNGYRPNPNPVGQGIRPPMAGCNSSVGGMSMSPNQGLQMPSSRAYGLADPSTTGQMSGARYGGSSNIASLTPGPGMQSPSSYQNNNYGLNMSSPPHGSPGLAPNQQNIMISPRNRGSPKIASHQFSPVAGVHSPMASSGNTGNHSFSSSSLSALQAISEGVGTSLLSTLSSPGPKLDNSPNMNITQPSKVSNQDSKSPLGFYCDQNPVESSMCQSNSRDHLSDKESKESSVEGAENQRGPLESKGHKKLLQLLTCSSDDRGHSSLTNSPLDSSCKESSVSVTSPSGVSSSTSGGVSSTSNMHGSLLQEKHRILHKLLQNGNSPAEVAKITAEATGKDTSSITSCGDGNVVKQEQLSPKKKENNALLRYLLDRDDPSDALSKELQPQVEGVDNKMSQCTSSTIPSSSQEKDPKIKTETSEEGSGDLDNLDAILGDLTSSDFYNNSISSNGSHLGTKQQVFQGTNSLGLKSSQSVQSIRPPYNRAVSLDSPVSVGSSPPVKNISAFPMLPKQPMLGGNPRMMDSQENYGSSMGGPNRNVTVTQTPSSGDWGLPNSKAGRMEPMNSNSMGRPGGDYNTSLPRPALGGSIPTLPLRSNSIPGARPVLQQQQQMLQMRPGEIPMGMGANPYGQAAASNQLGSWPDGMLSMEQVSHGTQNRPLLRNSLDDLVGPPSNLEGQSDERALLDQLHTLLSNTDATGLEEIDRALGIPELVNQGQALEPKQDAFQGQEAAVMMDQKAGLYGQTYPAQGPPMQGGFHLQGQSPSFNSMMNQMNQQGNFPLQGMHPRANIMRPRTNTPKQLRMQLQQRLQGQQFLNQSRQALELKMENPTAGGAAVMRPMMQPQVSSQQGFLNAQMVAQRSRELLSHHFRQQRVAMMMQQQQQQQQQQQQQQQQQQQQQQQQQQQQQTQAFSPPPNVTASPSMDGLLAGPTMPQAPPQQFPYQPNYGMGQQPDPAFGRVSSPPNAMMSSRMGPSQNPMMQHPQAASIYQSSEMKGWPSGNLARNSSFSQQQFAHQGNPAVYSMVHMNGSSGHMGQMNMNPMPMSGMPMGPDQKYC
Peroxisome proliferator-activated receptor gamma/Nuclear receptor coactivator 2, sequence (P37231 whole entry): as the sequence (P37231 whole entry) above
Peroxisome proliferator-activated receptor gamma/Nuclear receptor coactivator 2, sequence (Q15596 whole entry, further chain): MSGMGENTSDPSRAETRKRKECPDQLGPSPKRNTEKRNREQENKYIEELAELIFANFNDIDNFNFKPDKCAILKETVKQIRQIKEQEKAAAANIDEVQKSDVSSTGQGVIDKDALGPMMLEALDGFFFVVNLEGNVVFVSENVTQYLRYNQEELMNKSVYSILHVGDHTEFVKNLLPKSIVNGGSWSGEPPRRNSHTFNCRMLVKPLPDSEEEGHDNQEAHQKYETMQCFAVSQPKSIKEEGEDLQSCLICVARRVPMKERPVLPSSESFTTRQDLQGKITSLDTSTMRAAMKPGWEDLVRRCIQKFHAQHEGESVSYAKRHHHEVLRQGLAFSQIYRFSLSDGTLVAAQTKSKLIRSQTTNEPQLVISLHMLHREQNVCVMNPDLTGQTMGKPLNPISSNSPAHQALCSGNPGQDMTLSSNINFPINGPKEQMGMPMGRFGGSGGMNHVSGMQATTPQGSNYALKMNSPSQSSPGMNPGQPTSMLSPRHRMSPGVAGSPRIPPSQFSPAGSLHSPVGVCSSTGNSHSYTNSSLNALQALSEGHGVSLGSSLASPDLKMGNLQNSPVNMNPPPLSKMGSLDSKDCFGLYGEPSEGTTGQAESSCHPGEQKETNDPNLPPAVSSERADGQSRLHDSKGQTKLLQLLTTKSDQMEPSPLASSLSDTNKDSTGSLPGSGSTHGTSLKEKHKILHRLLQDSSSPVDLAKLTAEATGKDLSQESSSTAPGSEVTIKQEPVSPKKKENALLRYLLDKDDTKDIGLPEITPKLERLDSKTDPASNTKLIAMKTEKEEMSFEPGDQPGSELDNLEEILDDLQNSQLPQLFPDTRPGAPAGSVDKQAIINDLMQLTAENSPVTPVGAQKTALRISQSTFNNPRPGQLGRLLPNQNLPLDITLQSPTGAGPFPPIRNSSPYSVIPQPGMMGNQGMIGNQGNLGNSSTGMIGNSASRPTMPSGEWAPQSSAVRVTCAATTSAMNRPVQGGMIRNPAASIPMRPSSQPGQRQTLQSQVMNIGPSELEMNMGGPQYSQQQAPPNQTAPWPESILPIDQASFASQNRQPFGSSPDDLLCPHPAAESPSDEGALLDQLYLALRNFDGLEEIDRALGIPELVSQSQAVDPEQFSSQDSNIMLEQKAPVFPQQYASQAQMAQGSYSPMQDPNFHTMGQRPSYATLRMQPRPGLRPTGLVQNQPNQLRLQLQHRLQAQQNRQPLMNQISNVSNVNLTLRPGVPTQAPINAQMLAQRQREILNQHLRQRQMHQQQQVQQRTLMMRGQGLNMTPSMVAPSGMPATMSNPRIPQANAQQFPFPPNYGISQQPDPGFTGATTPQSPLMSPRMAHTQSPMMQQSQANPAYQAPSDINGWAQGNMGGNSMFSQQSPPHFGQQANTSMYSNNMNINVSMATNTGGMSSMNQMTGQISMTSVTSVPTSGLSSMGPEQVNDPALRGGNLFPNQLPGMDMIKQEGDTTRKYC
DNA dC->dU-editing enzyme APOBEC-3G, sequence (Q9HC16 whole entry): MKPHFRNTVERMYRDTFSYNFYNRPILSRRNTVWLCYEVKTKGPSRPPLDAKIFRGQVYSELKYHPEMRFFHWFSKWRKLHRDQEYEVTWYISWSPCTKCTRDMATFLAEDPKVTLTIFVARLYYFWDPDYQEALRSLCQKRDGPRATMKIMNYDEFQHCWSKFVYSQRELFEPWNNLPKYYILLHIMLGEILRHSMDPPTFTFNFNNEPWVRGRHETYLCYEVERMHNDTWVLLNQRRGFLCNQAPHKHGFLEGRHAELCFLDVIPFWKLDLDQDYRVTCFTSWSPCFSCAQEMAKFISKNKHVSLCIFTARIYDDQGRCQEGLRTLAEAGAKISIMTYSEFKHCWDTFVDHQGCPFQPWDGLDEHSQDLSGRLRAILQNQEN
Tumor necrosis factor, sequence (P01375 whole entry, the tested form may be a part): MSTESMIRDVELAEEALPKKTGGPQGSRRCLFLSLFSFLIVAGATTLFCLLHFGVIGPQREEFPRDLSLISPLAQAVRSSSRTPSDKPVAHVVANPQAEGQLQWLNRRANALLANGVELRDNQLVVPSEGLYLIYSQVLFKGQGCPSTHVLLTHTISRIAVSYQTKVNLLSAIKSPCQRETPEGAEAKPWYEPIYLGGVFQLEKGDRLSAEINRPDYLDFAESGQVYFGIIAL

Cc1cc(-c2csc(N)n2)c(C)n1CCc1ccccc1
EC50 [1]: 0.38 µM (active) | EC50 [2]: > 50 µM (not active) | IC50 [3]: > 29.9 µM (inactive) | EC50 [4]: 0.449 µM (active) | IC50 [5]: 3.8 µM (active) | EC50 [6]: > 29.9 µM (inactive)

CCOc1cc(NC(=O)c2cccs2)c(OCC)cc1N=C(S)NCC(C)C
Absolute IC50 (XBP1) [7]: 10 µM

Cc1[nH]c2ccccc2c1C(=O)C(=O)NCCOc1ccccc1
EC50 [8]: > 79.4 µM (not active) | EC50 [9]: > 79.4 µM (not active) | EC50 [10]: > 79.4 µM (not active)

C=CCn1/c(=N/C(=O)c2cccc(N3C(=O)CCC3=O)c2)sc2cccc(OC)c21
EC50 [11]: > 40 µM (inactive)

O=C(O)CCSc1nc2cc(Br)ccc2[nH]1
EC50 [12]: > 20 µM (not active) | EC50 [13]: > 20 µM (not active)

O=C(Nc1ncc(Cc2ccccc2Cl)s1)C1=NCCN1
CC50 [14]: > 40 µM (active) | CC50 [15]: > 40 µM (active) | CC50 [16]: > 20 µM (active) | IC50 [17]: 4.03 µM (active)

CCN(CC)CCn1c2ccccc2c2nnc(S)nc21
IC50 [18]: 19.5 µM (active) | AC50 [19]: 5.41 µM (active)

CCOc1ccc(N(Cc2ccc(OC)cc2)C(=O)c2ccco2)cc1
AC50 [20]: 4.23 µM (active)

Cn1cnnc1SCc1ccc(C(=O)N=Nc2c(O)n(C)c3ccccc23)cc1
EC50 [8]: > 79.4 µM (not active) | EC50 [9]: > 79.4 µM (not active) | EC50 [10]: > 79.4 µM (not active)

Cc1ccccc1C(=O)N/N=C/c1ccc([N+](=O)[O-])s1
EC50 [1]: 11 µM (active) | EC50 [2]: > 50 µM (not active) | AC50 [21]: 1.88 µM (active)

CC1CCc2c(sc3ncn(CC(=O)N=Nc4c(O)[nH]c5ccccc45)c(=O)c23)C1 (stereo unspecified)
Absolute IC50 (XBP1) [7]: 10 µM

O=C(CSc1nnc(-c2ccccc2)o1)Nc1ccccc1F
EC50 [22]: 4.09 µM (inconclusive) | EC50 [23]: 11.5 µM (active) | EC50 [1]: 2.93 µM (active) | IC50 [24]: > 100 µM (not active) | EC50 [25]: 1.07 µM (active) | EC50 [26]: 1.21 µM (active) | EC50 [27]: 7.86 µM (active) | EC50 [2]: > 50 µM (not active) | EC50 [28]: > 150 µM (inconclusive) | EC50 [29]: 8.39 µM (active)

CCCCCC(=O)N(O)C1CC(=O)N(c2ccccc2)C1=O (stereo unspecified)
IC50 [18]: 59.7 µM (active) | AC50 [30]: 4.5 µM (active)

Oc1nc(/C=C/c2ccccc2C(F)(F)F)cc(C(F)(F)F)n1
EC50 [31]: 9.79 µM (active) | IC50 [32]: > 20 µM (inactive) | IC50 [33]: > 20 µM (inactive) | IC50 [34]: 13.3 µM (inactive) | IC50 [35]: 11.3 µM (active) | IC50 [36]: 3.82 µM (active) | IC50 [37]: > 20 µM (inactive)
